What all share (assay type): cell-based
The test system of assay [1] is pool of aerobic organisms (mixed pool of 6 bacterial species). Nature of the assay: Biocidal efficacy at room temperature, aerobic bacteria. Conditions: for minimum dose needed to achieve 3-log reduction in bacteria levels: aerobic bacteria, ppm glutaraldehyde equivalent, tested 200 to 12 ppm. How it is done: (§1) Assay for Biocidal Efficacy at Room Temperature: Glutaraldehyde and Compounds 1 and 4 are tested for biocidal activity against a pool of aerobic organisms at room temperature and against sulfate reducing bacteria (SRB) at room temperature. Tests are performed as follows:
(§2) a. Stock preparation. Glutaraldehyde (50% in water) and Compounds 1 and 4 are each dissolved in DMSO to a concentration of 200 mM, which is equivalent to 20,000 ppm of free glutaraldehyde.
(§3) b. Aerobic Bacteria—a mixed pool of 6 bacterial species at approximately 5×10^6 CFU/mL in phosphate buffered saline is distributed into a 96-well plate. Each well receives an independent chemical treatment of the tested compounds at concentrations ranging from 200 ppm to 12 ppm glutaraldehyde. A control treatment of DMSO alone is also included. Each condition is tested in triplicate. After set periods of incubation (1, 4, and 24 h), the number of surviving cells in each well are enumerated by dilution to extinction in a medium containing resazurin dye as an indicator. c. Sulfate Reducing Bacteria (SRB)—SRB testing is performed as for the aerobic bacteria with the following modifications: the species Desulfovibrio longus is tested in anaerobic PBS and the enumeration of surviving cells is performed in a medium containing soluble iron as an indicator. d. Results: Values indicate minimum the dose needed (in ppm) to achieve 3-log reduction in bacteria levels. “n/a” indicates the threshold is not met at any of the tested doses. “N.D.” indicates no data available.

The test system of assay [2] is Thermus thermophilus (ATCC 27634). Nature of the assay: Biocidal efficacy at elevated temperature. Conditions: for log kill of treated bacterial populations relative to an untreated control: 50 ppm glutaraldehyde equivalent. As for the experimental part: Compound 1 is dissolved in DMSO to yield a 200 mM solution such that the glutaraldehyde-equivalent concentration of the stock solution is 20,000 ppm. The bacterial strain Thermus thermophilus (ATCC 27634) is maintained at 70° C. After 24-48 hours of growth, 10 mL of bacterial culture is harvested by spinning in a Beckman-Coulter benchtop centrifuge at 3000 rpm for 15 min. The cell pellet is resuspended in 100 mL of phosphate-buffered saline (PBS) to give approximately 5×10^5 CFU/mL and aliquoted into 10 mL portions in glass test tubes fitted with screw caps. Samples are equilibrated to 37, 55, or 70° C. for 30 min and then treated with glutaraldehyde or Compound 1 at 50 ppm glutaraldehyde equivalent. The treated samples are returned to their respective equilibration temperatures for 4 h and then enumerated for surviving bacteria. After 24 h, the process is repeated by adding fresh grown bacteria to the samples to re-challenge the biocide. The samples are again enumerated after 4 h. Results are reported in terms of log kill of treated bacterial populations relative to an untreated control at each temperature. For values listed as “>x,” actual kill may have been higher but could not be detected by this assay.

The test system of assay [3] is sulfate reducing bacteria (SRB), Desulfovibrio longus. Nature of the assay: Biocidal efficacy at room temperature, sulfate reducing bacteria (SRB). The note with it: for minimum dose needed to achieve 3-log reduction in bacteria levels: SRB, anaerobic PBS, ppm glutaraldehyde equivalent, tested 200 to 12 ppm; for activity against SRB (in words): compared with glutaraldehyde. How it is done: as §1, §2, §3

Where [4] appears, read: 37 C., 24 hr (re-challenge with fresh bacteria, enumerated after 4 h).
Where [5] appears, read: 55 C., 24 hr (re-challenge with fresh bacteria, enumerated after 4 h).
[6] abbreviates: 70 C., 24 hr (re-challenge with fresh bacteria, enumerated after 4 h).

In the case of `O=CCCCC=O` [glut, Glutaraldehyde, reference compound], the “minimum dose needed to achieve 3-log reduction in bacteria levels” value in assay [1] (1 hour incubation) is on record as 26 ppm; in assay [1] (4 hours incubation) it was 26 ppm; in assay [1] (24 hours incubation), 26 ppm; in assay [3] (1 hour incubation) it was 89 ppm; in assay [3] (4 hours incubation), 18 ppm; in assay [3] (24 hours incubation) it was under 12 ppm. The “log kill of treated bacterial populations relative to an untreated control” value in assay [2] (37 C., 4 hr) is over 3; in assay [2] (setting [4]), over 4; in assay [2] (55 C., 4 hr) it was over 3; in assay [2] (setting [5]), over 3; in assay [2] (70 C., 4 hr), over 4; in assay [2] (setting [6]), over 4.
For `CN1CCC(c2ccccc2)OC1CCCC1OC(c2ccccc2)CCN1C` (centres unmarked) [Compound 1, 1,3-bis(3-methyl-6-phenyl-1,3-oxazinan-2-yl)propane], the “biocidal activity against aerobic bacteria (in words)” value in assay [1] is “significant biocidal activity”. In addition, the “minimum dose needed to achieve 3-log reduction in bacteria levels” value is recorded as 59 ppm in assay [1] (1 hour incubation); 26 ppm in assay [1] (4 hours incubation); 40 ppm in assay [1] (24 hours incubation); 133 ppm in assay [3] (1 hour incubation); 133 ppm in assay [3] (4 hours incubation). The “log kill of treated bacterial populations relative to an untreated control” value in assay [2] (37 C., 4 hr) was over 3; in assay [2] (setting [4]), over 4; in assay [2] (55 C., 4 hr), over 3; in assay [2] (setting [5]), over 3; in assay [2] (70 C., 4 hr) it was over 4; in assay [2] (setting [6]), over 4. Also, in assay [2] (at each temperature tested (37, 55, 70 C.)), the “activity compared with glutaraldehyde (in words)” value is “equivalent activity to glutaraldehyde”. Moreover, the “activity against SRB (in words)” value in assay [3] is given as “some activity”.
Take `CN1CCOC1CCCC1OCCN1C` (centres unmarked) [Compound 4, 1,3-bis(3-methyloxazolidin-2-yl)propane]: the “biocidal activity against aerobic bacteria (in words)” value in assay [1] was “limited activity”. In addition, the “minimum dose needed to achieve 3-log reduction in bacteria levels” value in assay [1] (4 hours incubation) worked out at 200 ppm; in assay [1] (24 hours incubation), 200 ppm; in assay [3] (1 hour incubation) it was 200 ppm; in assay [3] (4 hours incubation), 133 ppm. Besides, in assay [3], the “activity against SRB (in words)” value is listed as “some activity”.
